Laboratory results from PubChem BioAssay AID330 (DTP/NCI, 2004).
Several values for one entry are separate records, joined by “and”; a condition that tells them apart may be missing. Equal entries are not always repeated. Inconclusive results and toxic doses are left out. Square brackets hold non-standard residues; d marks the D form. Peptide text beside a SMILES is read from it. ξ: configuration not given here. ξNva = CCCC(N)C(=O)O

System: P388 leukemia ip, CD2F1 mice, survival T/C
Assay: NCI In Vivo Anticancer Drug Screen. Data for tumor model P388 Leukemia (intraperitoneal) in CD2F1 (CDF1) mice
Conditions: endpoint: median survival time, higher = longer survival
Method in brief: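 Mice carrying the transplanted tumor received test compound or vehicle. Survival was recorded in each group, and the value is the treated-group measurement divided by that of the vehicle-treated control group.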

[1] = dose: 50.0 mg/kg/injection, schedule: Q01DX009 (ip), vehicle: Klucel (hydroxypropylcellulose) (HPC)
[2] = dose: 100.0 mg/kg/injection, schedule: Q01DX009 (ip), vehicle: Klucel (hydroxypropylcellulose) (HPC)
[3] = dose: 12.5 mg/kg/injection, schedule: Q01DX009 (ip), vehicle: saline
[4] = dose: 25.0 mg/kg/injection, schedule: Q01DX009 (ip), vehicle: saline
[5] = dose: 60.0 mg/kg/injection, schedule: Q01DX005 (ip), vehicle: saline with Tween-80
[6] = dose: 120.0 mg/kg/injection, schedule: Q01DX005 (ip), vehicle: saline with Tween-80
[7] = dose: 240.0 mg/kg/injection, schedule: Q01DX005 (ip), vehicle: saline with Tween-80
[8] = dose: 6.25 mg/kg/injection, schedule: Q01DX009 (ip), vehicle: saline with Tween-80
[9] = dose: 12.5 mg/kg/injection, schedule: Q01DX009 (ip), vehicle: saline with Tween-80
[10] = dose: 100.0 mg/kg/injection, schedule: Q01DX009 (ip), vehicle: saline with Tween-80
[11] = dose: 200.0 mg/kg/injection, schedule: Q01DX009 (ip), vehicle: saline with Tween-80
[12] = dose: 400.0 mg/kg/injection, schedule: Q01DX009 (ip), vehicle: saline with Tween-80
[13] = dose: 50.0 mg/kg/injection, schedule: Q01DX005 (ip), vehicle: saline with Tween-80
[14] = dose: 100.0 mg/kg/injection, schedule: Q01DX005 (ip), vehicle: saline with Tween-80
[15] = dose: 200.0 mg/kg/injection, schedule: Q01DX005 (ip), vehicle: saline with Tween-80
[16] = dose: 50.0 mg/kg/injection, schedule: Q01DX009 (ip), vehicle: saline with Tween-80
[17] = dose: 25.0 mg/kg/injection, schedule: Q01DX009 (ip), vehicle: saline with Tween-80
[18] = dose: 50.0 mg/kg/injection, schedule: Q01DX005 (ip), vehicle: Klucel (hydroxypropylcellulose) (HPC)
[19] = dose: 100.0 mg/kg/injection, schedule: Q01DX005 (ip), vehicle: Klucel (hydroxypropylcellulose) (HPC)
[20] = dose: 200.0 mg/kg/injection, schedule: Q01DX005 (ip), vehicle: Klucel (hydroxypropylcellulose) (HPC)
[21] = dose: 6.25 mg/kg/injection, schedule: Q01DX009 (ip), vehicle: saline

`CN(C)C(C#N)C(=O)c1ccccc1` (centres undefined) was tested, and the T/C (dose: 25.0 mg/kg/injection, schedule: Q01DX009 (ip), vehicle: Klucel (hydroxypropylcellulose) (HPC)) was 107 % of control, the T/C [1] was 110 % of control and the T/C [2] was 104 % of control.
For `COc1ccc(Oc2cc3c[n+](C)ccc3cc2OC)cc1`, the T/C [3] was 111 % of control and the T/C [4] was 117 % of control.
With `CCOC(=O)C1=C(Nc2ccc(Cl)cc2)C(=O)N(C(C)(C)C)C1` the T/C [5] was 111 % of control, the T/C [6] was 108 % of control and the T/C [7] was 109 % of control.
With `CC1=CC(C)(C)NC(=S)N1c1cccc(Cl)c1` the T/C (dose: 3.12 mg/kg/injection, schedule: Q01DX009 (ip), vehicle: saline with Tween-80) was 107 % of control and 118 % of control, the T/C [8] was 111 % of control and 114 % of control and the T/C [9] was 101 % of control and 118 % of control. The T/C [10] was 93 % of control, the T/C [11] was 90 % of control and the T/C [12] was 90 % of control.
`O=C(c1ccccc1)C(C(=O)c1ccccc1)S(=O)(=O)c1ccccc1` was tested, and the T/C [13] was 93 % of control, the T/C [14] was 93 % of control and the T/C [15] was 91 % of control.
For `CC1(C)OC2(C)NS(=O)(=O)c3ccc(Cl)cc3N2C1=O` (centres undefined), the T/C [16] was 106 % of control, the T/C [10] was 100 % of control and the T/C [11] was 98 % of control.
For `Cc1cc(Nc2nnc(-c3cccnc3Oc3ccccc3)s2)ccc1Br`, the T/C [9] was 88 % of control, the T/C [17] was 92 % of control and the T/C [16] was 105 % of control and 91 % of control. The T/C [10] was 94 % of control and the T/C [11] was 103 % of control.
In the case of `CC1CC(=O)C2(C)C1CC1CCC2(C)OC1(C)C` (centres undefined), the T/C [10] is reported as 100 % of control, the T/C [11] is reported as 102 % of control and the T/C [12] is reported as 100 % of control.
`COC(=O)c1[nH]cc2ccccc12` was tested, and the T/C (dose: 100.0 mg/kg/injection, schedule: Q04DX003 (ip), vehicle: saline with Tween-80) was 98 % of control, the T/C (dose: 200.0 mg/kg/injection, schedule: Q04DX003 (ip), vehicle: saline with Tween-80) was 104 % of control and the T/C (dose: 400.0 mg/kg/injection, schedule: Q04DX003 (ip), vehicle: saline with Tween-80) was 102 % of control.
In the case of `COC(=O)C1(C)CCCC2(C)C3=C(CCC12)C(=O)c1occc1CC3` (centres undefined), the T/C (dose: 0.37 mg/kg/injection, schedule: Q01DX009 (ip), vehicle: Klucel (hydroxypropylcellulose) (HPC)) is reported as 100 % of control, the T/C (dose: 0.75 mg/kg/injection, schedule: Q01DX009 (ip), vehicle: Klucel (hydroxypropylcellulose) (HPC)) is reported as 103 % of control and the T/C (dose: 1.5 mg/kg/injection, schedule: Q01DX009 (ip), vehicle: Klucel (hydroxypropylcellulose) (HPC)) is reported as 100 % of control. The T/C (dose: 3.0 mg/kg/injection, schedule: Q01DX009 (ip), vehicle: Klucel (hydroxypropylcellulose) (HPC)) was 99 % of control and the T/C (dose: 6.0 mg/kg/injection, schedule: Q01DX009 (ip), vehicle: Klucel (hydroxypropylcellulose) (HPC)) was 108 % of control.
With `CCCOP(=S)(N1CC1(C)C)N1CC1(C)C` (centres undefined) the T/C [9] was 104 % of control, the T/C [17] was 113 % of control and the T/C (dose: 150.0 mg/kg/injection, schedule: Q01DX009 (ip), vehicle: saline with Tween-80) was 155 % of control.
For `CCCC(NC(=O)CNC(=O)CN)C(=O)O` (stereo not drawn) (H-Gly-Gly-[ξNva]-OH), the T/C (dose: 60.0 mg/kg/injection, schedule: Q01DX005 (ip), vehicle: saline) was 98 % of control, the T/C (dose: 120.0 mg/kg/injection, schedule: Q01DX005 (ip), vehicle: saline) was 106 % of control and the T/C (dose: 240.0 mg/kg/injection, schedule: Q01DX005 (ip), vehicle: saline) was 106 % of control.
With `CSC(=S)NNC1=NCCCCC1` the T/C [1] was 106 % of control, the T/C [2] was 97 % of control and the T/C (dose: 200.0 mg/kg/injection, schedule: Q01DX009 (ip), vehicle: Klucel (hydroxypropylcellulose) (HPC)) was 87 % of control.
In the case of `O=C(NCCNc1ccccc1)C12CC3CC(CC(C3)C1)C2`, the T/C [18] is reported as 100 % of control, the T/C [19] is reported as 95 % of control and the T/C [20] is reported as 95 % of control.
`CC(C)(C(=O)O)C(Nc1ncnc2c1ncn2C1OC(CO)C(O)C1O)C(=O)O` (centres undefined) was tested, and the T/C (dose: 100.0 mg/kg/injection, schedule: Q04DX003 (ip), vehicle: saline) was 100 % of control and the T/C (dose: 200.0 mg/kg/injection, schedule: Q04DX003 (ip), vehicle: saline) was 106 % of control.
`CC(=O)OCC1OC([S][Sb]([CH3])[CH3])C(OC(C)=O)C(OC(C)=O)C1OC(C)=O` (centres undefined) was tested, and the T/C (dose: 15.0 mg/kg/injection, schedule: Q01DX005 (ip), vehicle: saline with Tween-80) was 112 % of control, the T/C (dose: 30.0 mg/kg/injection, schedule: Q01DX005 (ip), vehicle: saline with Tween-80) was 101 % of control and the T/C [5] was 115 % of control.
`COc1ccc(C(=S)NC(O)C(=O)c2ccc(Cl)cc2)cc1OC` (centres undefined) was tested, and the T/C [16] was 103 % of control and the T/C [10] was 103 % of control.
For `CCOc1c(Br)cc(/C=C(\C)[N+](=O)[O-])cc1OC`, the T/C [5] was 112 % of control and the T/C [6] was 106 % of control.
With `CCS(=O)(=O)[O][Sn]([CH2]C)([CH2]C)[O]S(=O)(=O)CC` the T/C (dose: 1.56 mg/kg/injection, schedule: Q04DX003 (ip), vehicle: saline) was 107 % of control, the T/C (dose: 3.12 mg/kg/injection, schedule: Q04DX003 (ip), vehicle: saline) was 110 % of control and the T/C (dose: 6.25 mg/kg/injection, schedule: Q04DX003 (ip), vehicle: saline) was 116 % of control and 121 % of control.
For `C/C(=N/NC(N)=O)c1cccc(/C(C)=N/NC(N)=O)n1.[Cl][Zn][Cl]`, the T/C [21] was 103 % of control, the T/C [3] was 102 % of control and the T/C [4] was 105 % of control.
`COCc1nnc2c(N)nccn12` was tested, and the T/C (dose: 100.0 mg/kg/injection, schedule: Q01DX001 (ip), vehicle: Klucel (hydroxypropylcellulose) (HPC)) was 99 % of control and the T/C (dose: 200.0 mg/kg/injection, schedule: Q01DX001 (ip), vehicle: Klucel (hydroxypropylcellulose) (HPC)) was 93 % of control.
With `O=C1c2ccccc2-c2cc(Br)c(N=Cc3c[nH]c4ccccc34)cc21` the T/C [13] was 105 % of control, the T/C [14] was 95 % of control and the T/C [15] was 89 % of control.
For `CCOC(=O)c1cnc2c(c(Br)cc3c4cc(Br)ccc4[nH]c32)c1Cl`, the T/C [21] was 112 % of control, the T/C [3] was 107 % of control and the T/C [4] was 111 % of control. For the same molecule, the T/C (dose: 50.0 mg/kg/injection, schedule: Q01DX009 (ip), vehicle: saline) was 97 % of control, the T/C (dose: 100.0 mg/kg/injection, schedule: Q01DX009 (ip), vehicle: saline) was 91 % of control and the T/C (dose: 200.0 mg/kg/injection, schedule: Q01DX009 (ip), vehicle: saline) was 88 % of control.
With `Oc1cc2c(cc1-c1cc3c(cc1O)OCO3)OCO2` the T/C (dose: 25.0 mg/kg/injection, schedule: Q01DX005 (ip), vehicle: Klucel (hydroxypropylcellulose) (HPC)) was 100 % of control, the T/C [18] was 100 % of control and the T/C [19] was 105 % of control. For the same molecule, the T/C [20] was 100 % of control.
`Cc1[nH]c(=O)[nH]c(=O)c1/C=C/C(=O)NC(CO)CS(=O)CS(C)=O` (centres undefined) was tested, and the T/C (dose: 1.2 mg/kg/injection, schedule: Q01DX009 (ip), vehicle: water) was 119 % of control, the T/C (dose: 2.2 mg/kg/injection, schedule: Q01DX009 (ip), vehicle: water) was 122 % of control and the T/C (dose: 2.4 mg/kg/injection, schedule: Q01DX009 (ip), vehicle: water) was 119 % of control.
`COc1ccc(-c2cc3ccccc3c(=O)n2Cc2ccccc2)cc1` was tested, and the T/C [5] was 100 % of control, the T/C [6] was 103 % of control and the T/C [7] was 94 % of control.
With `CCCCCCCCCCCCCCCCCCSC1=CC(=O)c2ccccc2C1=O` the T/C (dose: 3.13 mg/kg/injection, schedule: Q01DX009 (ip), vehicle: saline with Tween-80) was 95 % of control, the T/C [8] was 95 % of control and the T/C [9] was 90 % of control. The T/C [17] was 89 % of control and the T/C [16] was 97 % of control.
